Measured values from patent US20220298213A1, “IN VIVO ENGINEERED CEREBLON PROTEIN” (Vividion Therapeutics, Inc., priority 2018, published 2022).

What was measured:
Assay type in all cases: binding
TEC_449 = target: T1, TEC_449 (Homo sapiens, UniProt P42680); experiment: Probe labeling at native and denatured states after pretreatment (Table 2); conditions: screening concentration
T1 construct: In each the cell lysate was pretreated with compound; endogenous in cells
T1 sequence (P42680 1-631): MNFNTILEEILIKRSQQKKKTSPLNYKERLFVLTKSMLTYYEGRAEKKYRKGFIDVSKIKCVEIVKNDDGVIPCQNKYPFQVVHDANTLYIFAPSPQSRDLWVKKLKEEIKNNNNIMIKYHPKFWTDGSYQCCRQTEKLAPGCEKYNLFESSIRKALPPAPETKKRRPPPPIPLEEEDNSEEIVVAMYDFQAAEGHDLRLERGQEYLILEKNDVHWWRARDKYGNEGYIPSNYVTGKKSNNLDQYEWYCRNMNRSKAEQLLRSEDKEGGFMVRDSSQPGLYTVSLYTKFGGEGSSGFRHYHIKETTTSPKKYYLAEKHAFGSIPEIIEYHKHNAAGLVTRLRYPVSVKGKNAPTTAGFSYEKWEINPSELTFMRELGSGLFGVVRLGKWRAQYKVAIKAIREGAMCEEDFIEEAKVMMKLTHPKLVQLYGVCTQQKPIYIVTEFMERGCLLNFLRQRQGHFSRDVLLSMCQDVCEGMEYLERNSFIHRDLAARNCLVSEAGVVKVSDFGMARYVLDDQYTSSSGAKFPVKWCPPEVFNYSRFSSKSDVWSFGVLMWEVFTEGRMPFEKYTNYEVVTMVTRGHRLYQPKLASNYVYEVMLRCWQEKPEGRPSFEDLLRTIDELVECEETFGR

BTK_481 = target: T2, BTK_481 (Homo sapiens, UniProt Q06187); experiment: as above; conditions: screening concentration
T2 construct: In each the cell lysate was pretreated with compound; endogenous in cells
T2 sequence (Q06187 whole entry): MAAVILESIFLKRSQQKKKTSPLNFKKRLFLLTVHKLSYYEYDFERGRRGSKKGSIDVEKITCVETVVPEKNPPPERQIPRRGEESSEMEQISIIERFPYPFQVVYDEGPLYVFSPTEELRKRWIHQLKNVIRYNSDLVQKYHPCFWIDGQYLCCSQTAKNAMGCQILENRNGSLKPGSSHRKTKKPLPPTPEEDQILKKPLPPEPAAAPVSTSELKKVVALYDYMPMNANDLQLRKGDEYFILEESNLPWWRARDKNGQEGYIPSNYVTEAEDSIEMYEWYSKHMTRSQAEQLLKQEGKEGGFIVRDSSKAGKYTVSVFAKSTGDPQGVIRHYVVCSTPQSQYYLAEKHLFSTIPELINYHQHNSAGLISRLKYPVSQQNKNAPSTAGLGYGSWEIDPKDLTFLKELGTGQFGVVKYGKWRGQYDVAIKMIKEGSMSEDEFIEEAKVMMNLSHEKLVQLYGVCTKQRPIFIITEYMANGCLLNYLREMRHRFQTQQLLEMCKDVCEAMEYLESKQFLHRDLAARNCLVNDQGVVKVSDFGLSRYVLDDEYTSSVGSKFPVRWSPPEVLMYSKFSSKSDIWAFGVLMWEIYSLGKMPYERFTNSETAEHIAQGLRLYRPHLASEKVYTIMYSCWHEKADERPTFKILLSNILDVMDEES

CRBN_326 = target: T3, CRBN_326 (Homo sapiens, UniProt Q96SW2); experiment: as above
T3 construct: endogenous in cells; host or cells: cell lysate
T3 sequence (Q96SW2 whole entry): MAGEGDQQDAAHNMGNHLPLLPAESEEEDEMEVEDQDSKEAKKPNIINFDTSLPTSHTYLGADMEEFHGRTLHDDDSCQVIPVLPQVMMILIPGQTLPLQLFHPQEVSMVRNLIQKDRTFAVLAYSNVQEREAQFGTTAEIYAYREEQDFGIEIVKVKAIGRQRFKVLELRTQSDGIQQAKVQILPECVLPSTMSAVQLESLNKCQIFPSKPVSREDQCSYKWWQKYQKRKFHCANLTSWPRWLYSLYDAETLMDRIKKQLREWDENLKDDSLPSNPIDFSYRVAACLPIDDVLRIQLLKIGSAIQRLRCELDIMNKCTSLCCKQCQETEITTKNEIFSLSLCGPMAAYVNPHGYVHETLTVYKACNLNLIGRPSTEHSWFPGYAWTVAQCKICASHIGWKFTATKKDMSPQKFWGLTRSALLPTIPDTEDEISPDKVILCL
Method: (§1) To determine whether the co-inhibition of C287 and C318 was due to a direct or indirect mechanism, CRBN was pretreated with various Michael acceptor compounds and then tested for probe labeling in its native and denatured states.
(§2) In each the cell lysate was pretreated with compound, for native state data the probe was immediately added and for denatured data the probe was added after an additional step of denaturation (schematic shown in FIG. 4).

CRBN_188 = target: T4, CRBN_188 (Homo sapiens, UniProt Q96SW2); experiment: as above
T4 construct: endogenous in cells; host or cells: cell lysate
T4 sequence (Q96SW2 whole entry): as above
Method: as §1, §2

CRBN_310 = target: T5, CRBN_310 (Homo sapiens, UniProt Q96SW2); experiment: as above
T5 construct: endogenous in cells; host or cells: cell lysate
T5 sequence (Q96SW2 whole entry): as above
Method: as §1, §2

CRBN_322 = target: T6, CRBN_322 (Homo sapiens, UniProt Q96SW2); experiment: as above
T6 construct: endogenous in cells; host or cells: cell lysate
T6 sequence (Q96SW2 whole entry): as above
Method: as §1, §2

CRBN_343 = target: T7, CRBN_343 (Homo sapiens, UniProt Q96SW2); experiment: as above
T7 construct: endogenous in cells; host or cells: cell lysate
T7 sequence (Q96SW2 whole entry): as above
Method: as §1, §2

CRBN_205 = target: T8, CRBN_205 (Homo sapiens, UniProt Q96SW2); experiment: as above
T8 construct: endogenous in cells; host or cells: cell lysate
T8 sequence (Q96SW2 whole entry): as above
Method: as §1, §2

CRBN_441 = target: T9, CRBN_441 (Homo sapiens, UniProt Q96SW2); experiment: as above
T9 construct: endogenous in cells; host or cells: cell lysate
T9 sequence (Q96SW2 whole entry): as above
Method: as §1, §2

CRBN_234 = target: T10, CRBN_234 (Homo sapiens, UniProt Q96SW2); experiment: as above
T10 construct: endogenous in cells; host or cells: cell lysate
T10 sequence (Q96SW2 whole entry): as above
Method: as §1, §2

CRBN_219 = target: T11, CRBN_219 (Homo sapiens, UniProt Q96SW2); experiment: as above
T11 construct: endogenous in cells; host or cells: cell lysate
T11 sequence (Q96SW2 whole entry): as above
Method: as §1, §2

CRBN-318 = CRBN-318 (Homo sapiens, UniProt Q96SW2); experiment: as above; parameters: endogenous in cells; host or cells: cell lysate
Sequence of CRBN-318 (Q96SW2 whole entry): as above
Method: as §1, §2

CRBN-287 = CRBN-287 (Homo sapiens, UniProt Q96SW2); experiment: as above; parameters: endogenous in cells; host or cells: cell lysate
Sequence of CRBN-287 (Q96SW2 whole entry): as above
Method: as §1, §2

CRBN Cys366 = target: T12, CRBN Cys366 (Homo sapiens, UniProt Q96SW2); experiment: Inhibition of iodoacetamide probe labeling of CRBN cysteines, cell lysate (Table 3A); conditions: cell lysate, 1 h
T12 construct: endogenous in cells
T12 sequence (Q96SW2 whole entry): as above
Method: (§3) “X@Y” means that x % inhibition of iodoacetamide probe labeling was observed by treatment of cell lysate with the give compound in each row of the table for 1 h at a concentration of y micromolar. There was consistently high inhibition at C318 in addition to C287, which can be attributed to an allosteric inhibition.

CRBN Cys343 = target: T13, CRBN Cys343 (Homo sapiens, UniProt Q96SW2); experiment: as above; conditions: cell lysate, 1 h
T13 construct: endogenous in cells
T13 sequence (Q96SW2 whole entry): as above
Method: as §3

CRBN Cys287 = target: T14, CRBN Cys287 (Homo sapiens, UniProt Q96SW2); experiment: as above; conditions: cell lysate, 1 h; for inhibition at 500 µM: 500 micromolar
T14 construct: endogenous in cells
T14 sequence (Q96SW2 whole entry): as above
Method: as §3

CRBN Cys219 = target: T15, CRBN Cys219 (Homo sapiens, UniProt Q96SW2); experiment: as above; conditions: cell lysate, 1 h
T15 construct: endogenous in cells
T15 sequence (Q96SW2 whole entry): as above
Method: as §3

CRBN Cys205 = target: T16, CRBN Cys205 (Homo sapiens, UniProt Q96SW2); experiment: as above; conditions: cell lysate, 1 h
T16 construct: endogenous in cells
T16 sequence (Q96SW2 whole entry): as above
Method: as §3

CRBN Cys188 = target: T17, CRBN Cys188 (Homo sapiens, UniProt Q96SW2); experiment: as above; conditions: 500 micromolar, cell lysate, 1 h
T17 construct: endogenous in cells
T17 sequence (Q96SW2 whole entry): as above
Method: as §3

CRBN Cys234 = target: T18, CRBN Cys234 (Homo sapiens, UniProt Q96SW2); experiment: as above; conditions: cell lysate, 1 h
T18 construct: endogenous in cells
T18 sequence (Q96SW2 whole entry): as above
Method: as §3

CRBN Cys318 = target: T19, CRBN Cys318 (Homo sapiens, UniProt Q96SW2); experiment: as above; conditions: cell lysate, 1 h
T19 construct: endogenous in cells
T19 sequence (Q96SW2 whole entry): as above
Method: as §3

[1] = read-out: % inhibition of iodoacetamide probe labeling, Cys287

With `C=CC(=O)N1CC(Cc2ccc(C)cc2)C1` the “inhibition of probe labeling, TEC_449, Den.” value (TEC_449; denatured state) was 98%, the “inhibition of probe labeling, TEC_449, Nat.” value (TEC_449; native state) was 99% and the “inhibition of probe labeling, BTK_481, Den.” value (BTK_481; denatured state) was 99%. The “inhibition of probe labeling, BTK_481, Nat.” value (BTK_481; native state) was 99%, the “inhibition of probe labeling, CRBN_326, Den.” value (CRBN_326) was −16% and the “inhibition of probe labeling, CRBN_188, Den.” value (CRBN_188) was −21%. The “inhibition of probe labeling, CRBN_188, Nat.” value (CRBN_188) was −13%, the “inhibition of probe labeling, CRBN_310, Den.” value (CRBN_310) was −1% and the “inhibition of probe labeling, CRBN_310, Nat.” value (CRBN_310) was 9%. The “inhibition of probe labeling, CRBN_322, Den.” value (CRBN_322) was 15%, the “inhibition of probe labeling, CRBN_322, Nat.” value (CRBN_322) was 36% and the “inhibition of probe labeling, CRBN_343, Den.” value (CRBN_343) was −28%. The “inhibition of probe labeling, CRBN_205, Den.” value (CRBN_205) was −11%, the “inhibition of probe labeling, CRBN_205, Nat.” value (CRBN_205) was −23% and the “inhibition of probe labeling, CRBN_441, Den.” value (CRBN_441) was −24%. The “inhibition of probe labeling, CRBN_234, Den.” value (CRBN_234) was −7%, the “inhibition of probe labeling, CRBN_234, Nat.” value (CRBN_234) was −4% and the “inhibition of probe labeling, CRBN_219, Den.” value (CRBN_219) was 24%. The “inhibition of probe labeling, CRBN_219, Nat.” value (CRBN_219) was −6%, the “inhibition of probe labeling, CRBN_318, Den.” value (CRBN-318) was 11% and the “inhibition of probe labeling, CRBN_287, Den.” value (CRBN-287) was 67%.

`C=CC(=O)N1CCC(Oc2cc(C(=O)N(C)C)cc(-c3ccccc3OC)c2)CC1` [Example A2] was tested, and the inhibition at 500 µM (CRBN Cys366; 500 micromolar) was 2%, the inhibition at 500 µM (CRBN Cys343; 500 micromolar) was -6% and the inhibition at 500 µM (CRBN Cys287; [1]) was 91%. It also gave an inhibition at 500 µM (CRBN Cys219; 500 micromolar, read-out: % inhibition of iodoacetamide probe labeling, Cys219) of 31%, an inhibition at 500 µM (CRBN Cys205; 500 micromolar, read-out: % inhibition of iodoacetamide probe labeling, Cys205) of 18% and an inhibition at 500 µM (CRBN Cys188) of 9%.

Compound `CC(/C=C(\C#N)C(=O)N1CCC(c2ccccc2)C1)c1ccccc1` (stereo not shown) [Example A7] has an inhibition at 0.5 µM (CRBN Cys366; 0.5 micromolar) of 3%, an inhibition at 5 µM (CRBN Cys366; 5 micromolar) of 3% and an inhibition at 50 µM (CRBN Cys366; 50 micromolar) of 26%. It also gave an inhibition at 5 µM (CRBN Cys343; 5 micromolar) of 8%, an inhibition at 50 µM (CRBN Cys343; 50 micromolar) of 51% and an inhibition at 0.5 µM (CRBN Cys234; 0.5 micromolar) of 12%. It also gave an inhibition at 5 µM (CRBN Cys234; 5 micromolar) of 19%, an inhibition at 50 µM (CRBN Cys234; 50 micromolar) of 32% and an inhibition at 2 µM (CRBN Cys287; 2.0 micromolar, read-out: % inhibition of iodoacetamide probe labeling, Cys287) of 71%. It also gave an inhibition at 7.8 µM (CRBN Cys287; 7.8 micromolar) of 72%, an inhibition at 31.2 µM (CRBN Cys287; 31.2 micromolar, read-out: % inhibition of iodoacetamide probe labeling, Cys287) of 95% and an inhibition at 125 µM (CRBN Cys287; 125 micromolar, read-out: % inhibition of iodoacetamide probe labeling, Cys287) of 94%. For the same compound, the inhibition at 500 µM (CRBN Cys287; [1]) was 92%, the inhibition at 5 µM (CRBN Cys219; 5 micromolar) was -3% and the inhibition at 50 µM (CRBN Cys219; 50 micromolar) was 32%. For the same compound, the inhibition at 5 µM (CRBN Cys205; 5 micromolar) was -42%, the inhibition at 0.5 µM (CRBN Cys318; 0.5 micromolar) was 39% and the inhibition at 5 µM (CRBN Cys318; 5 micromolar) was 67%. The inhibition at 50 µM (CRBN Cys318; 50 micromolar) was 69%.
